Results on 45 compounds are retold here after patent publication US20230157996A1, “SMALL-MOLECULE INHIBITOR TARGETING EB VIRUS NUCLEAR ANTIGEN PROTEIN, PREPARATION METHOD AND USE THEREOF” (priority 2020, published 2023).

Structures are written as SMILES. A value given as a limit tells only on which side of the number the result lay.

The first experiment relates to C666-1 cells. Kind of experiment: C666-1 cell viability single concentration (50 μM) inhibition rate (Resazurin). It is filed as cell-based. The conditions noted are these: Homo sapiens, C6661, 72 h, 50 μM compound, 72 hours, C666-1 cells; read-out: C666-1 cell viability single concentration (50 μM) inhibition rate, Ratio* (Inh %). In a few lines: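 EBV-positive C666-1 cells (5×10^3/well), pre-cultured 24 h, were exposed to compound at 50 μmol/L final for 72 h at 37° C, 5% CO2, in duplicate. Viability by resazurin (3 h, ex 560/em 590 nm); inhibition rate computed relative to DMSO control and medium-only blank.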
On the technique in general: Resazurin is reduced to fluorescent resorufin, in cell work by metabolically active cells.
For the compound `COC(=O)c1cccc(N2CC(Sc3ccc(C(C)C)cc3)C2)c1-n1cccc1` [Example 348, Methyl 3-(3-((4-isopropylphenyl)thio)azetidin-1-yl)-2-(1H-pyrrol-1-yl)benzoate], the inhibition at 50 µM is less than 10%.
Still for that read-out and setting: the value for `COC(=O)c1cccc(N2CC(Sc3ccc(Cl)cc3)C2)c1-n1cccc1` [Example 349, Methyl 3-(3-((4-chlorophenyl)thio)azetidin-1-yl)-2-(1H-pyrrol-1-yl)benzoate] was less than 10%; that for `COC(=O)c1cccc(N2CC(SC3CCCCC3)C2)c1-n1cccc1` [Example 350, Methyl 3-(3-(cyclohexylthio)azetidin-1-yl)-2-(1H-pyrrol-1-yl)benzoate] was less than 10%; that for `COC(=O)c1cccc(N2CC(Sc3ccccc3)C2)c1-n1cccc1` [Example 351, Methyl 3-(3-(phenylthio)azetidin-1-yl)-2-(1H-pyrrol-1-yl)benzoate] was less than 10%.
Same read-out and setting: the value for `COC(=O)c1cccc(N2CC(Sc3ccc(CO)cc3)C2)c1-n1cccc1` [Example 352, Methyl 3-(3-((4-(hydroxymethyl)phenyl)thio)azetidin-1-yl)-2-(1H-pyrrol-1-yl)benzoate] was greater than 50%; that for `COC(=O)c1cccc(N2CC(S(=O)(=O)c3ccc(C(C)C)cc3)C2)c1-n1cccc1` [Example 353, Methyl 3-(3-((4-isopropylphenyl)sulfonyl)azetidin-1-yl)-2-(1H-pyrrol-1-yl)benzoate] was 10 to 30%; that for `COC(=O)c1cccc(N2CC(S(=O)(=O)c3ccc(Cl)cc3)C2)c1-n1cccc1` [Example 354, Methyl 3-(3-((4-chlorophenyl)sulfonyl)azetidin-1-yl)-2-(1H-pyrrol-1-yl)benzoate] was 10 to 30%.
For the compound `COC(=O)c1cccc(N2CC(S(=O)(=O)C3CCCCC3)C2)c1-n1cccc1` [Example 355, Methyl 3-(3-(cyclohexylsulfonyl)azetidin-1-yl)-2-(1H-pyrrol-1-yl)benzoate], the inhibition at 50 µM was in the range of 10 to 30%.
The same measure, in the same setting: the value for `COC(=O)c1cccc(N2CC(S(=O)(=O)c3ccccc3)C2)c1-n1cccc1` [Example 356, Methyl 3-(3-(phenylsulfonyl)azetidin-1-yl)-2-(1H-pyrrol-1-yl)benzoate] was less than 10%; that for `COC(=O)c1cccc(N2CC(S(=O)(=O)c3ccc(CO)cc3)C2)c1-n1cccc1` [Example 357, Methyl 3-(3-((4-(hydroxymethyl)phenyl)sulfonyl)azetidin-1-yl)-2-(1H-pyrrol-1-yl)benzoate] was less than 10%; that for `COC(=O)c1cccc(N2CC(Oc3ccc(COc4cncc(F)c4)cc3)C2)c1-n1cccc1` [Example 358, Methyl 3-(3-(4-(((5-fluoropyridin-3-yl)oxy)methyl)phenoxy)azetidin-1-yl)-2-(1H-pyrrol-1-yl)benzoate] was 10 to 30%.
On the same count and under the same terms, next, `O=C(O)c1cccc(N2CC(Oc3ccc(COc4cncc(F)c4)cc3)C2)c1-n1cccc1` [Example 359, 3-(3-(4-(((5-fluoropyridin-3-yl)oxy)methyl)phenoxy)azetidin-1-yl)-2-(1H-pyrrol-1-yl)benzoic acid]: less than 10%; `COC(=O)c1cccc(N2CC(Oc3ccc(COc4cncnc4)cc3)C2)c1-n1cccc1` [Example 360, Methyl 3-(3-(4-((pyrimidin-5-yl-oxy)methyl)phenoxy)azetidin-1-yl)-2-(1H-pyrrol-1-yl)benzoate]: less than 10%; `O=C(O)c1cccc(N2CC(Oc3ccc(COc4cncnc4)cc3)C2)c1-n1cccc1` [Example 361, 3-(3-(4-((pyrimidin-5-yl-oxy)methyl)phenoxy)azetidin-1-yl)-2-(1H-pyrrol-1-yl)benzoic acid]: less than 10%.
The same measure, in the same setting: next, `COC(=O)c1cccc(N2CC(Oc3ccc(CNc4ccccc4)cc3)C2)c1-n1cccc1` [Example 362]: less than 10%; `O=C(O)c1cccc(N2CC(Oc3ccc(CNc4ccccc4)cc3)C2)c1-n1cccc1` [Example 363]: less than 10%; `COC(=O)c1cccc(N2CC(Oc3ccc(CNCc4ccccc4)cc3)C2)c1-n1cccc1` [Example 364]: less than 10%.
Turning to `O=C(O)c1cccc(N2CC(Oc3ccc(CNCc4ccccc4)cc3)C2)c1-n1cccc1` [Example 365], the inhibition at 50 µM was less than 10%.
Regarding `COCCOCc1ccc(OC2CN(c3cccc(C(=O)OC)c3-n3cccc3)C2)cc1OCCOC` [Example 366, Methyl 3-(3-(3-(2-methoxyethoxy)-4-((2-methoxyethoxy)methyl)phenoxy)azetidin-1-yl)-2-(1H-pyrrol-1-yl)benzoate], the inhibition at 50 µM lay in the range of 10 to 30%.
With `COCCOCc1ccc(OC2CN(c3cccc(C(=O)O)c3-n3cccc3)C2)cc1OCCOC` [Example 367, 3-(3-(3-(2-methoxyethoxy)-4-((2-methoxyethoxy)methyl)phenoxy)azetidin-1-yl)-2-(1H-pyrrol-1-yl)benzoic acid], the inhibition at 50 µM was less than 10%.
The same measure, in the same setting: next, `N#CCCNC(=O)c1cccc(N2CC(Oc3ccc(CO)cc3)C2)c1-n1cccc1` [Example 368, N-(2-cyanoethyl)-3-(3-(4-(hydroxymethyl)phenoxy)azetidin-1-yl)-2-(1H-pyrrol-1-yl)benzamide]: 10 to 30%.
On to `CS(=O)(=O)NC(=O)c1cccc(N2CC(Oc3ccc(CO)cc3)C2)c1-n1cccc1` [Example 369, N-methylsulfonyl-(3-(3-(4-(hydroxymethyl)phenoxy)azetidin-1-yl)-2-(1H-pyrrol-1-yl))benzamide], for which the inhibition at 50 µM is less than 10%.
On the same count and under the same terms, the value for `COCCOCc1ccc(OC2CN(c3cccc(C(=O)OC)c3-n3cccc3)C2)cc1` [Example 370] was 10 to 30%; that for `COCCOCc1ccc(OC2CN(c3cccc(C(=O)O)c3-n3cccc3)C2)cc1` [Example 371] was 10 to 30%.
Still for that read-out and setting: the value for `COC(=O)c1cccc(N2CC(Oc3ccc(COCCO)cc3)C2)c1-n1cccc1` [Example 372] was 10 to 30%; that for `O=C(O)c1cccc(N2CC(Oc3ccc(COCCO)cc3)C2)c1-n1cccc1` [Example 373] was less than 10%.
Still for that read-out and setting: the value for `COC(=O)c1cccc(N2CC(Oc3ccc(COCCNC(C)=O)cc3)C2)c1-n1cccc1` [Example 374] was 10 to 30%; that for `COC(=O)c1cccc(N2CC(Oc3ccc(COC4CCOC4)cc3)C2)c1-n1cccc1` (stereo not drawn) [Example 375] was less than 10%; that for `O=C(O)c1cccc(N2CC(Oc3ccc(COC4CCOC4)cc3)C2)c1-n1cccc1` (stereo not drawn) [Example 376] was 10 to 30%.
As for `COC(=O)c1cccc(N2CC(Oc3ccc(COC4COC4)cc3)C2)c1-n1cccc1` [Example 377, Methyl 3-(3-(4-((oxetanyl-3-oxy)methyl)phenoxy)azetidin-1-yl)-2-(1H-pyrrol-1-yl)benzoate], the inhibition at 50 µM was greater than 50%.
Still for that read-out and setting: the value for `COC(=O)c1cccc(N2CC(Oc3ccc(COC4CCN(C(C)=O)CC4)cc3)C2)c1-n1cccc1` [Example 378] was less than 10%; that for `O=C(O)c1cccc(C#CN2Cc3ccccc3S2(=O)=O)c1-n1cccc1` [Example 379] was greater than 50%; that for `Cc1ccc(S(=O)(=O)N(C#Cc2cccc(C(=O)O)c2-n2cccc2)Cc2ccccc2)cc1` [Example 380, 3-(((N-benzyl-4-methylphenyl)sulfonamido)ethynyl)-2-(1H-pyrrol-1-yl)benzoic acid] was less than 10%.
Same read-out and setting: the value for `Cc1ccc(S(=O)(=O)N(C)C#Cc2cccc(C(=O)O)c2-n2cccc2)cc1` [Example 384] was less than 10%; that for `COC(=O)c1cccc(C#CN(Cc2ccc(OC)cc2)S(=O)(=O)c2ccc(C)cc2)c1-n1cccc1` [Example 385] was 10 to 30%.
Turning to `COC(=O)c1cccc(C#CN(Cc2cccnc2)S(=O)(=O)c2ccc(C)cc2)c1-n1cccc1` [Example 387], the inhibition at 50 µM was greater than 50%.
In the case of `O=C(NCc1ccco1)c1cccc(N2CC(Oc3ccc(CO)cc3)C2)c1-n1cccc1` [Example 388, N-(furan-2-yl-methyl)-3-(3-(4-(hydroxymethyl)phenoxy)azetidin 1-yl)-2-(1H-pyrrol-1-yl)benzamide], the inhibition at 50 µM was less than 10%.
As to `COC(=O)c1cccc(C#CN(Cc2ccncc2)S(=O)(=O)c2ccc(C)cc2)c1-n1cccc1` [Example 389], the inhibition at 50 µM is greater than 50%.
Consider `COC(=O)c1cccc(C2CC2c2ccccc2)c1N` (stereo not drawn) [Example 391, Methyl 2-amino-3-(2-phenylcyclopropyl)benzoate], for which the inhibition at 50 µM is less than 10%.
With `Nc1c(C(=O)O)cccc1C1CC1c1ccccc1` (stereo not drawn) [Example 392, 2-amino-3-(2-phenylcyclopropyl)benzoic acid], the inhibition at 50 µM was less than 10%.
On the same count and under the same terms, the value for `O=C(O)c1cccc(C2CC2c2ccccc2)c1-n1cccc1` (stereo not drawn) [Example 393, 3-(2-phenylcyclopropyl)-2-(1H-pyrrol-1-yl)benzoic acid] was less than 10%; that for `O=C(O)c1cccc(N2CC(Oc3ccc(COC4CCOCC4)cc3)C2)c1-n1cccc1` [Example 394, 2-(1H-pyrrol-1-yl)-3-(3-(4-(((tetrahydro-2H-pyran-4-yl)oxy)methyl)phenoxy)azetidin-1-yl)benzoic acid] was less than 10%.

Still in this experiment, the particulars now being: Homo sapiens, C6661, 72 h, read-out: C666-1 cell viability single concentration (50 μM) inhibition rate, Ratio* (Inh %).
For the compound `CS(=O)(=O)N(C#Cc1cccc(C(=O)O)c1-n1cccc1)Cc1ccccc1` [Example 382, Lithium 3-((N-benzylmethylsulfonamido)ethynyl)-2-(1H-pyrrol-1-yl)benzoate], the inhibition at 50 µM was less than 10%.
The same measure, in the same setting: the value for `COc1ccc(CN(C#Cc2cccc(C(=O)O)c2-n2cccc2)S(=O)(=O)c2ccc(C)cc2)cc1` [Example 386] was less than 10%; that for `Cc1ccc(S(=O)(=O)N(C#Cc2cccc(C(=O)O)c2-n2cccc2)Cc2ccncc2)cc1` [Example 390] was 10 to 30%.
